Data: the NIST ThermoML archive (doi:10.1016/j.jct.2017.02.022)
Numbers after ± are expanded uncertainties.

What was measured:
[1] = refractive index (Na D-line) (dimensionless); xn = mol fraction of the nth substance listed; conditions: 101.3 kPa, Liquid, Standard Abbe refractometry
[2] = xn = mol fraction of the nth substance listed; conditions: 101.3 kPa, Liquid; for speed of sound: Frequency=3 MHz, Sing-around technique in a fixed-path interferometer; for mass density: Vibrating tube method

CCn1cc[n+](C)c1.COS(=O)(=O)[O-] [1-ethyl-3-methylimidazolium methylsulfate] + CCCCCO
Conditions	mass density, [2] [kg/m3]	refractive index, [1]	speed of sound, [2] [m/s]
298 K, x1 = 0.05	849 ± 3	1.413 ± 0.01	1291 ± 20
298 K, x1 = 0.284	999 ± 2	1.435 ± 0.01	1425 ± 20
298 K, x1 = 0.459	1089 ± 2	1.448 ± 0.01	1527 ± 20
298 K, x1 = 0.613	1157 ± 2	1.458 ± 0.01	1603 ± 20
298 K, x1 = 0.768	1216 ± 2	1.468 ± 0.01	1662 ± 20
298 K, x1 = 0.922	1268 ± 2	1.476 ± 0.01	1721 ± 20
298 K, x1 = 1	1292 ± 2	1.48 ± 0.01	1762 ± 20
303 K, x1 = 0.05	845 ± 3	1.412 ± 0.01	1274 ± 20
303 K, x1 = 0.284	994 ± 2	1.434 ± 0.01	1409 ± 20
303 K, x1 = 0.459	1085 ± 2	1.447 ± 0.01	1511 ± 20
303 K, x1 = 0.613	1153 ± 2	1.457 ± 0.01	1588 ± 20
303 K, x1 = 0.768	1212 ± 2	1.466 ± 0.01	1648 ± 20
303 K, x1 = 0.922	1265 ± 2	1.475 ± 0.01	1708 ± 20
303 K, x1 = 1	1289 ± 2	1.479 ± 0.01	1750 ± 20
308 K, x1 = 0.05	841 ± 3	1.411 ± 0.01	1258 ± 20
308 K, x1 = 0.284	990 ± 2	1.432 ± 0.01	1393 ± 20
308 K, x1 = 0.459	1081 ± 2	1.445 ± 0.01	1496 ± 20
308 K, x1 = 0.613	1149 ± 2	1.455 ± 0.01	1573 ± 20
308 K, x1 = 0.768	1208 ± 2	1.465 ± 0.01	1634 ± 20
308 K, x1 = 0.922	1261 ± 2	1.473 ± 0.01	1695 ± 20
308 K, x1 = 1	1285 ± 2	1.478 ± 0.01	1739 ± 20
313 K, x1 = 0.05	837 ± 3	1.409 ± 0.01	1241 ± 20
313 K, x1 = 0.284	986 ± 2	1.43 ± 0.01	1377 ± 20
313 K, x1 = 0.459	1077 ± 2	1.443 ± 0.01	1480 ± 20
313 K, x1 = 0.613	1145 ± 2	1.453 ± 0.01	1559 ± 20
313 K, x1 = 0.768	1205 ± 2	1.463 ± 0.01	1620 ± 20
313 K, x1 = 0.922	1258 ± 2	1.472 ± 0.01	1682 ± 20
313 K, x1 = 1	1282 ± 2	1.476 ± 0.01	1727 ± 20

CCn1cc[n+](C)c1.COS(=O)(=O)[O-] [1-ethyl-3-methylimidazolium methylsulfate] + CCCCO
Conditions	mass density, [2] [kg/m3]	refractive index, [1]	speed of sound, [2] [m/s]
298 K, x1 = 0.041	843 ± 3	1.403 ± 0.01	1260 ± 20
298 K, x1 = 0.219	976 ± 2	1.424 ± 0.01	1372 ± 20
298 K, x1 = 0.417	1087 ± 2	1.442 ± 0.01	1504 ± 20
298 K, x1 = 0.571	1156 ± 2	1.454 ± 0.01	1593 ± 20
298 K, x1 = 0.731	1214 ± 2	1.464 ± 0.01	1662 ± 20
298 K, x1 = 0.909	1268 ± 2	1.475 ± 0.01	1729 ± 20
298 K, x1 = 1	1292 ± 2	1.48 ± 0.01	1762 ± 20
303 K, x1 = 0.041	839 ± 3	1.401 ± 0.01	1243 ± 20
303 K, x1 = 0.219	972 ± 2	1.422 ± 0.01	1356 ± 20
303 K, x1 = 0.417	1083 ± 2	1.44 ± 0.01	1488 ± 20
303 K, x1 = 0.571	1152 ± 2	1.452 ± 0.01	1578 ± 20
303 K, x1 = 0.731	1210 ± 2	1.462 ± 0.01	1648 ± 20
303 K, x1 = 0.909	1264 ± 2	1.473 ± 0.01	1716 ± 20
303 K, x1 = 1	1289 ± 2	1.479 ± 0.01	1750 ± 20
308 K, x1 = 0.041	835 ± 3	1.398 ± 0.01	1226 ± 20
308 K, x1 = 0.219	967 ± 2	1.419 ± 0.01	1340 ± 20
308 K, x1 = 0.417	1078 ± 2	1.437 ± 0.01	1473 ± 20
308 K, x1 = 0.571	1147 ± 2	1.449 ± 0.01	1563 ± 20
308 K, x1 = 0.731	1206 ± 2	1.461 ± 0.01	1634 ± 20
308 K, x1 = 0.909	1261 ± 2	1.472 ± 0.01	1702 ± 20
308 K, x1 = 1	1285 ± 2	1.478 ± 0.01	1739 ± 20
313 K, x1 = 0.041	830 ± 3	1.395 ± 0.01	1209 ± 20
313 K, x1 = 0.219	963 ± 2	1.416 ± 0.01	1324 ± 20
313 K, x1 = 0.417	1074 ± 2	1.435 ± 0.01	1457 ± 20
313 K, x1 = 0.571	1143 ± 2	1.447 ± 0.01	1548 ± 20
313 K, x1 = 0.731	1202 ± 2	1.459 ± 0.01	1620 ± 20
313 K, x1 = 0.909	1257 ± 2	1.47 ± 0.01	1689 ± 20
313 K, x1 = 1	1282 ± 2	1.476 ± 0.01	1727 ± 20

CCn1cc[n+](C)c1.COS(=O)(=O)[O-] [1-ethyl-3-methylimidazolium methylsulfate] + CCCO
Conditions	mass density, [2] [kg/m3]	refractive index, [1]	speed of sound, [2] [m/s]
298 K, x1 = 0.059	864 ± 3	1.394 ± 0.01	1247 ± 20
298 K, x1 = 0.228	1003 ± 3	1.419 ± 0.01	1377 ± 20
298 K, x1 = 0.375	1090 ± 2	1.435 ± 0.01	1487 ± 20
298 K, x1 = 0.524	1156 ± 2	1.448 ± 0.01	1588 ± 20
298 K, x1 = 0.72	1223 ± 2	1.463 ± 0.01	1681 ± 20
298 K, x1 = 0.874	1264 ± 2	1.473 ± 0.01	1730 ± 20
298 K, x1 = 1	1292 ± 2	1.48 ± 0.01	1762 ± 20
303 K, x1 = 0.059	859 ± 3	1.393 ± 0.01	1230 ± 20
303 K, x1 = 0.228	998 ± 3	1.417 ± 0.01	1362 ± 20
303 K, x1 = 0.375	1085 ± 2	1.433 ± 0.01	1473 ± 20
303 K, x1 = 0.524	1152 ± 2	1.446 ± 0.01	1574 ± 20
303 K, x1 = 0.72	1219 ± 2	1.461 ± 0.01	1668 ± 20
303 K, x1 = 0.874	1260 ± 2	1.471 ± 0.01	1717 ± 20
303 K, x1 = 1	1289 ± 2	1.479 ± 0.01	1750 ± 20
308 K, x1 = 0.059	855 ± 3	1.391 ± 0.01	1214 ± 20
308 K, x1 = 0.228	993 ± 3	1.415 ± 0.01	1347 ± 20
308 K, x1 = 0.375	1080 ± 2	1.431 ± 0.01	1458 ± 20
308 K, x1 = 0.524	1148 ± 2	1.444 ± 0.01	1560 ± 20
308 K, x1 = 0.72	1215 ± 2	1.459 ± 0.01	1654 ± 20
308 K, x1 = 0.874	1257 ± 2	1.469 ± 0.01	1704 ± 20
308 K, x1 = 1	1285 ± 2	1.478 ± 0.01	1739 ± 20
313 K, x1 = 0.059	851 ± 3	1.389 ± 0.01	1197 ± 20
313 K, x1 = 0.228	989 ± 3	1.413 ± 0.01	1332 ± 20
313 K, x1 = 0.375	1076 ± 2	1.428 ± 0.01	1443 ± 20
313 K, x1 = 0.524	1143 ± 2	1.442 ± 0.01	1546 ± 20
313 K, x1 = 0.72	1211 ± 2	1.457 ± 0.01	1641 ± 20
313 K, x1 = 0.874	1253 ± 2	1.468 ± 0.01	1692 ± 20
313 K, x1 = 1	1282 ± 2	1.476 ± 0.01	1727 ± 20
